Assay results published in patent publication US12077503B2, “Substituted cyclic amides and their use as herbicides” (FMC CORPORATION, priority 2015, dated 2024).
Like-named read-outs stand apart in the source and are kept apart here.

Assays:
[1] = tested on: pigweed (Amaranthus retroflexus); experiment: Test A postemergence; type: in vivo; settings: Amaranthus retroflexus, post-emergence, 240 h, postemergence; for pest or weed control at 125 g/ha: 125 g ai/ha; for pest or weed control at 500 g/ha: 500 g ai/ha, 0 to 100 scale, 0 is no effect, 100 is complete control
Procedure, shortened: (§1)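 Treatment is preemergence as a directed soil spray after planting, or postemergence at the one- to two-leaf stage, with test chemical in a non-phytotoxic solvent mixture plus surfactant. Plants stay in the greenhouse about 10 d before visual injury scoring on a 0 to 100 scale versus untreated controls.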

[2] = tested on: giant foxtail (Setaria faberii); experiment: Test A postemergence; type: in vivo; settings: Setaria faberi, post-emergence, 240 h, postemergence; for pest or weed control at 125 g/ha: 125 g ai/ha; for pest or weed control at 500 g/ha: 500 g ai/ha, 0 to 100 scale, 0 is no effect, 100 is complete control
Procedure, shortened: as §1

[3] = tested on: corn (Zea mays); experiment: Test A postemergence; type: in vivo; settings: Zea mays, post-emergence, 240 h, postemergence; for plant injury at 125 g/ha: 125 g ai/ha; for plant injury at 500 g/ha: 500 g ai/ha, 0 to 100 scale, 0 is no effect, 100 is complete control
Procedure, shortened: as §1

[4] = tested on: barnyardgrass (Echinochloa crus-galli); experiment: Test A postemergence; type: in vivo; settings: Echinochloa crus-galli, post-emergence, 240 h, postemergence; for pest or weed control at 125 g/ha: 125 g ai/ha; for pest or weed control at 500 g/ha: 500 g ai/ha, 0 to 100 scale, 0 is no effect, 100 is complete control
Procedure, shortened: as §1

[5] = tested on: blackgrass (Alopecurus myosuroides); experiment: Test A postemergence; type: in vivo; settings: Alopecurus myosuroides, post-emergence, 240 h, postemergence; for pest or weed control at 125 g/ha: 125 g ai/ha; for pest or weed control at 500 g/ha: 500 g ai/ha, 0 to 100 scale, 0 is no effect, 100 is complete control
Procedure, shortened: as §1

[6] = visual injury on 0 to 100 scale (0 no effect, 100 complete control), approx. 10 d, read-out: Pigweed plant response rating
[7] = read-out: Pigweed plant response rating
[8] = visual injury on 0 to 100 scale (0 no effect, 100 complete control), approx. 10 d, read-out: Foxtail, Giant plant response rating
[9] = read-out: Foxtail, Giant plant response rating
[10] = visual injury on 0 to 100 scale (0 no effect, 100 complete control), approx. 10 d, read-out: Corn plant response rating
[11] = read-out: Corn plant response rating
[12] = visual injury on 0 to 100 scale (0 no effect, 100 complete control), approx. 10 d, read-out: Barnyardgrass plant response rating
[13] = read-out: Barnyardgrass plant response rating
[14] = visual injury on 0 to 100 scale (0 no effect, 100 complete control), approx. 10 d, read-out: Blackgrass plant response rating
[15] = read-out: Blackgrass plant response rating
[16] = visual injury vs untreated controls after approx. 10 d, 0 = no effect, 100 = complete control, read-out: Pigweed plant response rating (0 to 100 scale)
[17] = visual injury vs untreated controls after approx. 10 d, 0 = no effect, 100 = complete control, read-out: Foxtail, Giant plant response rating (0 to 100 scale)
[18] = visual injury vs untreated controls after approx. 10 d, 0 = no effect, 100 = complete control, read-out: Corn plant response rating (0 to 100 scale)
[19] = visual injury vs untreated controls after approx. 10 d, 0 = no effect, 100 = complete control, read-out: Barnyardgrass plant response rating (0 to 100 scale)
[20] = visual injury vs untreated controls after approx. 10 d, 0 = no effect, 100 = complete control, read-out: Blackgrass plant response rating (0 to 100 scale)

Row | Structure (SMILES) | melting point [°C] | pest or weed control at 125 g/ha [1, 6] [%] | pest or weed control at 500 g/ha [1, 7] [%] | pest or weed control at 125 g/ha [2, 8] [%] | pest or weed control at 500 g/ha [2, 9] [%] | plant injury at 125 g/ha [3, 10] [%] | plant injury at 500 g/ha [3, 11] [%] | pest or weed control at 125 g/ha [4, 12] [%] | pest or weed control at 500 g/ha [4, 13] [%] | pest or weed control at 125 g/ha [5, 14] [%] | pest or weed control at 500 g/ha [5, 15] [%] | pest or weed control at 125 g/ha [1, 16] [%] | pest or weed control at 125 g/ha [2, 17] [%] | plant injury at 125 g/ha [3, 18] [%] | pest or weed control at 125 g/ha [4, 19] [%] | pest or weed control at 125 g/ha [5, 20] [%]
1 | CSc1ccccc1NC(=O)C1C(=O)NCC1C=C(C)C (stereo not shown) [Compound 1055] | 100 to 104 | 0 | 0 | 0 | 0 | 0 | 0 | 0 | 0 | 0 | 0 |  |  |  |  | 
2 | CN1CC(c2ccccc2OC(F)(F)C(F)F)C(C(=O)Nc2cccc(F)c2F)C1=O (stereo not shown) [Compound 1056] | 130 to 134 | 0 | 0 | 0 | 20 | 0 | 0 | 20 | 50 | 0 | 0 |  |  |  |  | 
3 | CC(C)=CC1CNC(=O)C1C(=O)Nc1ccccc1S(C)(=O)=O (stereo not shown) [Compound 1057] | 159 to 163 | 0 | 0 | 0 | 0 | 0 | 0 | 0 | 0 | 0 | 0 |  |  |  |  | 

Now from value to compound, other results behind:

Row | melting point [°C] | Structure (SMILES) | pest or weed control at 125 g/ha [1, 6] [%] | pest or weed control at 500 g/ha [1, 7] [%] | pest or weed control at 125 g/ha [2, 8] [%] | pest or weed control at 500 g/ha [2, 9] [%] | plant injury at 125 g/ha [3, 10] [%] | plant injury at 500 g/ha [3, 11] [%] | pest or weed control at 125 g/ha [4, 12] [%] | pest or weed control at 500 g/ha [4, 13] [%] | pest or weed control at 125 g/ha [5, 14] [%] | pest or weed control at 500 g/ha [5, 15] [%] | pest or weed control at 125 g/ha [1, 16] [%] | pest or weed control at 125 g/ha [2, 17] [%] | plant injury at 125 g/ha [3, 18] [%] | pest or weed control at 125 g/ha [4, 19] [%] | pest or weed control at 125 g/ha [5, 20] [%]
4 | 161 to 164 | O=C1NC[C@H](c2cccc(I)c2)[C@H]1C(=O)Nc1ccccc1F [Compound 1160] |  | 0 |  | 90 |  | 80 |  | 90 |  | 50 | 0 | 80 | 40 | 80 | 0
5 | 123 to 127.7 | O=C1NC[C@H](c2nccs2)[C@H]1C(=O)Nc1ccccc1F [Compound 1181] |  | 0 |  | 0 |  | 0 |  | 0 |  | 0 | 0 | 0 | 0 | 0 | 0
